Data on one compound can be found in paper PMC3919268, “Three-dimensional structure of a Streptomyces sviceus GNAT acetyltransferase with similarity to the C-terminal domain of the human GH84 O-GlcNAcase” (Acta Crystallographica Section D: Biological Crystallography, 2013).

The assay concerns the target T1, SsAT (acetyltransferase, accession No. ZP_05014886) (Streptomyces sviceus, UniProt B5HKU0).
T1 construct: gene SSEG_00025; recombinant N-terminally His-tagged SsAT, freshly purified
Description: ITC, pH […]°C, one-site model, n close to […]. The assay is classed as binding. On the technique in general: Isothermal titration calorimetry measures the heat released or taken up as one component is titrated into another.

pKd: −log10 of the molar value.

T1 sequence (B5HKU0 entry or part of it): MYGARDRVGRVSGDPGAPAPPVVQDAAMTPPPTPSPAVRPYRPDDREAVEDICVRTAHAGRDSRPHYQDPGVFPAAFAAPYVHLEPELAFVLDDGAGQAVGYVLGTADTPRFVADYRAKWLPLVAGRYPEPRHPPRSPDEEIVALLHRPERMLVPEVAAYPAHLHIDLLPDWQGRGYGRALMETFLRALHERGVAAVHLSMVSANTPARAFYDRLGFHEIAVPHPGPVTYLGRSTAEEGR

Broadly, the pKd is −log10 of the Kd, conventionally taken in molar units. Consider `CC(=O)SCCNC(=O)CCNC(=O)[C@H](O)C(C)(C)COP(=O)(O)OP(=O)(O)OC[C@H]1O[C@@H](n2cnc3c(N)ncnc32)[C@H](O)[C@@H]1OP(=O)(O)O` [acetyl coenzyme A], for which the pKd was 4.70.
